Results on four compounds are retold here after ChEMBL document CHEMBL4422623, “Synthesis of spiro-2,6-dioxopiperazine and spiro-2,6-dioxopyrazine scaffolds using amino acids in a three-component reaction to generate potential Sigma-1 (σ1) receptor selective ligands” (Eur J Med Chem, 2019).

For assay [1], the target named is 5-hydroxytryptamine receptor 2B (Homo sapiens, UniProt P41595). Description: Displacement of [3H]LSD from human 5-HT2B receptor expressed in HEK cells by radioligand binding assay. Type of assay: cell-based. (In general: Displacement assays read how much labelled ligand stays bound in the presence of the test substance.)
A further assay has as its target Histamine H2 receptor (Homo sapiens, UniProt P25021). Description: Binding affinity to human histamine 2 receptor expressed in HEK cells by radioligand binding assay. Type of assay: cell-based.
The target in another assay is Mu-type opioid receptor (Homo sapiens, UniProt P35372). Description: Displacement of [3H]DAMGO from human mu opioid receptor expressed in HEK cells by radioligand binding assay. In kind it is cell-based.
The target in assay [2] is 5-hydroxytryptamine receptor 7 (Homo sapiens, UniProt P34969). Nature of the assay: Displacement of [3H]LSD from human 5-HT7 receptor expressed in HEK cells by radioligand binding assay. Type of assay: cell-based.
Assay [3] deals with T1, Alpha-2A adrenergic receptor (Homo sapiens, UniProt P08913).
T1 sequence (P08913 whole entry): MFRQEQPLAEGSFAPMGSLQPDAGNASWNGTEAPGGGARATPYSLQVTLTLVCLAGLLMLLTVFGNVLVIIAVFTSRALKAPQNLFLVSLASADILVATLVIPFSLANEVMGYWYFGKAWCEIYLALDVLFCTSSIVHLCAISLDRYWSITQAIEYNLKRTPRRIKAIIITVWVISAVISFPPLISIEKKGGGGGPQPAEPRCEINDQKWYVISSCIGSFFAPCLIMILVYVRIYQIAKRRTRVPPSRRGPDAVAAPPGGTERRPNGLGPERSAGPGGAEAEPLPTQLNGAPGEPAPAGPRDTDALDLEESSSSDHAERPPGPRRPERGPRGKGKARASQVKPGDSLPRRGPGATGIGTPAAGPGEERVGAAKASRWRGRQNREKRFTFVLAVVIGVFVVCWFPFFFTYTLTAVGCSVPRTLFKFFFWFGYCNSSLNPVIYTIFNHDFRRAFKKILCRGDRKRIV
Description: Displacement of […] from human adrenergic alpha 2A receptor expressed in MDCK cells by radioligand binding assay. Type of assay: cell-based.

A further assay addresses T2, D(4) dopamine receptor (Homo sapiens, UniProt P21917).
T2 sequence (P21917 whole entry): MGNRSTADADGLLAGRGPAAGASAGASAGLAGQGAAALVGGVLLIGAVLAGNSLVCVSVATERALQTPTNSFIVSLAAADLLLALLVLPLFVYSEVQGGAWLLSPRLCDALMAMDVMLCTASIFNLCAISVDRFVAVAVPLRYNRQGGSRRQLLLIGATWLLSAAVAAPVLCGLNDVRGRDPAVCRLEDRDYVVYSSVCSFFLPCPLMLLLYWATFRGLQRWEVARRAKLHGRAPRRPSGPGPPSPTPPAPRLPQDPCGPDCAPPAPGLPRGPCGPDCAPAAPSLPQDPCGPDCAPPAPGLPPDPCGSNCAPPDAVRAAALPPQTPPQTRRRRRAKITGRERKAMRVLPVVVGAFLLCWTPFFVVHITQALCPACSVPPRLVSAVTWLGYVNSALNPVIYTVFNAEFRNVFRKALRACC
Nature of the assay: Displacement of [3H]N-methylspiperone from human D4 receptor by radioligand binding assay.

For assay [4], the target named is Sodium-dependent dopamine transporter (Homo sapiens, UniProt Q01959). Description: Displacement of [3H]WIN35428 from human DAT receptor expressed in HEK cells by radioligand binding assay. Type of assay: cell-based.
The target of assay [5] is Kappa-type opioid receptor (Homo sapiens, UniProt P41145). Description: Displacement of [3H]U69593 from human kappa opioid receptor expressed in HEK cells by radioligand binding assay. Type of assay: cell-based.
Assay [6] deals with Sigma non-opioid intracellular receptor 1 (Cavia porcellus, UniProt Q60492). Description: Displacement of [3H]Pentazocine from guinea pig sigma-1 receptor by radioligand binding assay.
In assay [7] the target is T3, Sigma intracellular receptor 2 (Rattus norvegicus, UniProt Q5U3Y7).
T3 sequence (Q5U3Y7 whole entry): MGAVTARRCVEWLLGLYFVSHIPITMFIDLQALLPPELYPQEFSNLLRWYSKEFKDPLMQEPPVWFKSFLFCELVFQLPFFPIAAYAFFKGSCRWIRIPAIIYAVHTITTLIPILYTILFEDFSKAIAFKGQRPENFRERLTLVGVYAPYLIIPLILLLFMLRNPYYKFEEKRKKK
Description: Displacement of [3H]DTG from sigma-2 receptor in rat PC12 cells by radioligand binding assay. In kind it is cell-based.

Chain of 5-hydroxytryptamine receptor 2B (P41595 whole entry): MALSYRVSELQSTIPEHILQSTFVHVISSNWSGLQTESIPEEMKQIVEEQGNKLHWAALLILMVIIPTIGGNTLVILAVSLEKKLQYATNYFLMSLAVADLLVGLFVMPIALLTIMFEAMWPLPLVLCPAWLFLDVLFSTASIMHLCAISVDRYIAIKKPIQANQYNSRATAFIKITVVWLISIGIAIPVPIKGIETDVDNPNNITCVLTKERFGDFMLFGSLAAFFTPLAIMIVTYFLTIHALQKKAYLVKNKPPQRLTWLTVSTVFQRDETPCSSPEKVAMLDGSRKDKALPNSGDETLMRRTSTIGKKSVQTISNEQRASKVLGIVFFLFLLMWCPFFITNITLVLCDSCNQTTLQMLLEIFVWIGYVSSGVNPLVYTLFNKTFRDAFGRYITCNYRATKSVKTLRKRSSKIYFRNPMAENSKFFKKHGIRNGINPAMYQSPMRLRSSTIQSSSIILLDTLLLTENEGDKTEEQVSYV
Chain of Mu-type opioid receptor (P35372 whole entry): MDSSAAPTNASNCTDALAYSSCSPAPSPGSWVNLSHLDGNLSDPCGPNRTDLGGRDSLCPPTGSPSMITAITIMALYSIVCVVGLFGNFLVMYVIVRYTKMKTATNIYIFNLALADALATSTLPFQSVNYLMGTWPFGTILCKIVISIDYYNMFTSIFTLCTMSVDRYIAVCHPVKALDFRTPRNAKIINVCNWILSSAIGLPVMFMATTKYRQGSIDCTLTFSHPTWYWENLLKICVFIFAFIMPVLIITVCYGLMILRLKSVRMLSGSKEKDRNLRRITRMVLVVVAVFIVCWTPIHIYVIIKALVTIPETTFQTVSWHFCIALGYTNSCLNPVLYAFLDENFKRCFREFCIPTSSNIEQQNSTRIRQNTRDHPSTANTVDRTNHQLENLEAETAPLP
Chain of Histamine H2 receptor (P25021 whole entry): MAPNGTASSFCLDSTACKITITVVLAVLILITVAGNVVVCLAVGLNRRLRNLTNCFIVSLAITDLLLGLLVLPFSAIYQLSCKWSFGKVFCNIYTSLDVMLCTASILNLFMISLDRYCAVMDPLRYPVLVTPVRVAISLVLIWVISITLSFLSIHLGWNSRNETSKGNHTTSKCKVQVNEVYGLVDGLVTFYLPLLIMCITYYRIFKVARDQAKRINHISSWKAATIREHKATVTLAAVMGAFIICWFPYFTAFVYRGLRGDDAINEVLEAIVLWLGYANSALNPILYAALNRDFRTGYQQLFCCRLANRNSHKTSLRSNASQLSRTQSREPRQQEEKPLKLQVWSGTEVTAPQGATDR
Chain of 5-hydroxytryptamine receptor 7 (P34969 whole entry): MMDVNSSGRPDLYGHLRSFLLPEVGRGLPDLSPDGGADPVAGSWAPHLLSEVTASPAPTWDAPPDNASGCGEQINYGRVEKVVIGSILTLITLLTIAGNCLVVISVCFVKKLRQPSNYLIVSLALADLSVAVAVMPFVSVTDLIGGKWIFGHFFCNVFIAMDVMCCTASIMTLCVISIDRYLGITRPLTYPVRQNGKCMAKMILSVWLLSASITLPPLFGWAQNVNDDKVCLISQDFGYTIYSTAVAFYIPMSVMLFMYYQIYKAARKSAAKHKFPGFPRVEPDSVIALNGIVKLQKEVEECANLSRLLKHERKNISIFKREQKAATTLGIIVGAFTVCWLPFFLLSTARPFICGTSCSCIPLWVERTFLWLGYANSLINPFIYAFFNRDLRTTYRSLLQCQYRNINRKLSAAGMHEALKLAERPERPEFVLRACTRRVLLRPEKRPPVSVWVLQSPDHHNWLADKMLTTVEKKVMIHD
Chain of Sigma non-opioid intracellular receptor 1 (Q60492 whole entry): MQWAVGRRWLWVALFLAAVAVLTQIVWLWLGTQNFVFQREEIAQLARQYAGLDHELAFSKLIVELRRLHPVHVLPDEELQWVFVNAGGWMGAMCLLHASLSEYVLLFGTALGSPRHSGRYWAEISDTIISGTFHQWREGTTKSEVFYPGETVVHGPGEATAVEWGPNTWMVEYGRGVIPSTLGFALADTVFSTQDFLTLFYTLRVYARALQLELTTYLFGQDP
Chain of Kappa-type opioid receptor (P41145 whole entry): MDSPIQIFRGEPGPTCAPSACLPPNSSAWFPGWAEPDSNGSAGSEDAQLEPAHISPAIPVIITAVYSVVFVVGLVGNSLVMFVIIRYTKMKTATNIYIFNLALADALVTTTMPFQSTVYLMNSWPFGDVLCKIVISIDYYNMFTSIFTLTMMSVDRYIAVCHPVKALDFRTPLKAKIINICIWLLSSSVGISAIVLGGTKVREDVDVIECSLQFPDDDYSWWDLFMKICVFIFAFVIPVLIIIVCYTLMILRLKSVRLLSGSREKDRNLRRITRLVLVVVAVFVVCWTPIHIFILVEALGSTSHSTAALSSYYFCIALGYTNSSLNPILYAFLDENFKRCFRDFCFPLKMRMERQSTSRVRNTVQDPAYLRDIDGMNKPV
Chain of Sodium-dependent dopamine transporter (Q01959 whole entry): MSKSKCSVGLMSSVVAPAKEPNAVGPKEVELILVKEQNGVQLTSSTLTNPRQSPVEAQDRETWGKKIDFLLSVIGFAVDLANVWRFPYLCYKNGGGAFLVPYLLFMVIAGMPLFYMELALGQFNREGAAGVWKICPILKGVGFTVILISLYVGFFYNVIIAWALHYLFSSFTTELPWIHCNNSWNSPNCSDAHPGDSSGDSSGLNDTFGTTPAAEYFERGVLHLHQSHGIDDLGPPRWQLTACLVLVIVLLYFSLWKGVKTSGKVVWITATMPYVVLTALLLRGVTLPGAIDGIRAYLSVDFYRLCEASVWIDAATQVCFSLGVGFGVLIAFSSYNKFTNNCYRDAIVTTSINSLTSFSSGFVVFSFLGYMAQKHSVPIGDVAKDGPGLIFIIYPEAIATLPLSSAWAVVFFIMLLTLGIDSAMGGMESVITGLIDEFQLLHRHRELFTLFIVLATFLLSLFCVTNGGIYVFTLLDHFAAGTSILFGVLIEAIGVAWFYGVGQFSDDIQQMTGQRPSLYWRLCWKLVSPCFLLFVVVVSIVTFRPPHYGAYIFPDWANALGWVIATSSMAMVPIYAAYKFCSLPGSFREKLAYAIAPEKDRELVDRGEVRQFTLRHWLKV

In general, Ki refers to a measure of affinity in units of concentration, obtained from inhibition or displacement. As for `Cc1cccc(C)c1N1C(=O)[C@H](CC2CNc3ccccc32)NC2(CCN(C)CC2)C1=O` (stereo partly specified), the Ki came out at 840 nM in assay [1], 546 nM at Histamine H2 receptor and 993 nM on Mu-type opioid receptor.

As to `Cc1cccc(C)c1N1C(=O)CNC2(CCN(C)CC2)C1=O`, the results for the Ki (in [1]; at Mu-type opioid receptor) were 742 nM and 10000 nM, respectively.

Turning to `CC1=NC2(CCN(C)CC2)C(=O)N(c2c(C)cccc2C)C1=O`, the inhibition constant (Ki) in assay [1] stood at 231 nM; in assay [2] it was 2760 nM; in [3] it was 3360 nM; at D(4) dopamine receptor, 1280 nM; in assay [4], 2560 nM; at Histamine H2 receptor it was 823 nM. The inhibition constant Ki in assay [5] came to 1710 nM; in assay [6], 8.6 nM; in [7] it was 696 nM.

Consider `Cc1cccc(C)c1N1C(=O)[C@H](CO)NC2(CCN(C)CC2)C1=O`, for which the inhibition constant (Ki) in assay [1] came out at 2050 nM; on Mu-type opioid receptor, 1630 nM.
